Results on one compound are retold here after patent US6803499B1, “Methods and compositions for the production of stably transformed, fertile monocot plants and cells thereof” (DeKalb Genetics Corporation, priority 1989, dated 2004).

SMILES strings stand for the structures.

The assay concerns SC82 cells. Description: Bialaphos selection of SC82 suspension culture cells on filters. Format: cell-based, Zea mays. As for the experimental part:
The suspension culture (designated SC82) used in the initial experiments (see Example 8) was derived from embryogenic Type-II callus of A188×B73. Following bombardment (see Example 8), cells on filters were resuspended in nonselective liquid medium, cultured for 1 to 2 weeks and transferred to filters overlaying solid medium containing 1 or 3 mg/l bialaphos. The degree of inhibition of tissue growth during selection was dependent upon the density of the cells on the filter and on the concentration of bialaphos used.
Using either selection protocol (1 or 3 mg/l bialaphos), resistant cell colonies emerged on the selection plates of SC82 bombarded with pDPG165 approximately 6 to 7 weeks after bombardment (FIG. 2A). Bialaphos-resistant calli were maintained and expanded on selection medium. Much of this tissue was embryogenic (FIG. 2B). […] These were controls which confirm the prediction that cells without the bar gene are not resistant to bialaphos.

Take `C[C@H](NC(=O)[C@H](C)NC(=O)[C@@H](N)CCP(C)(=O)O)C(=O)O` [bialaphos]: the “growth of cells cultured on bialaphos” value (SC82 cells, 0.5 PCV/filter, 1 mg/l bialaphos) is on record as 30-50 % of nonselected growth. The “growth of cells on the original selection filter” value (SC82 cells, 0.5 PCV/filter, 3 mg/l bialaphos) was ~10 % of nonselected growth. The “colony growth on selection plates” value (cells from untransformed suspension cultures, 1 or 3 mg/l bialaphos) is on record as “No colony growth”.
